Reference: PubChem BioAssay AID248 (DTP/NCI, 2004)
Several values for one entry are separate records, joined by “and”; a condition that tells them apart may be missing. Identical values can stand only once. Toxic doses and inconclusive results are not listed. No stated cut-off is given here; in the data, active means T/C of 150% or more; inactive means T/C below 125%. Square brackets hold non-standard residues; d marks the D form. Peptide text beside a SMILES is read from it. * marks the point of attachment. ξ: configuration not given here. Cbz = O=C(OCc1ccccc1)*; ξS = NC(CO)C(=O)O

System: L1210 leukemia ip in BDF1 mice, survival T/C
Assay: NCI In Vivo Anticancer Drug Screen. Data for tumor model L1210 Leukemia (intraperitoneal) in B6D2F1 (BDF1) mice
Conditions: endpoint: mean survival time, higher = longer survival
In short: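 Transplantable tumor model; survival measured in treated vs vehicle control mice. Value = treated/control.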

[1] = dose: 100.0 mg/kg/injection, schedule: Q01DX009 (ip), vehicle: saline
[2] = dose: 200.0 mg/kg/injection, schedule: Q01DX009 (ip), vehicle: saline
[3] = dose: 25.0 mg/kg/injection, schedule: Q04DX003 (ip), vehicle: Klucel (hydroxypropylcellulose) (HPC)
[4] = dose: 50.0 mg/kg/injection, schedule: Q04DX003 (ip), vehicle: Klucel (hydroxypropylcellulose) (HPC)
[5] = dose: 100.0 mg/kg/injection, schedule: Q04DX003 (ip), vehicle: Klucel (hydroxypropylcellulose) (HPC)
[6] = dose: 100.0 mg/kg/injection, schedule: Q04DX003 (ip), vehicle: saline with Tween-80
[7] = dose: 200.0 mg/kg/injection, schedule: Q04DX003 (ip), vehicle: saline with Tween-80
[8] = dose: 100.0 mg/kg/injection, schedule: Q01DX001 (ip), vehicle: Klucel (hydroxypropylcellulose) (HPC)
[9] = dose: 100.0 mg/kg/injection, schedule: Q01DX009 (ip), vehicle: Klucel (hydroxypropylcellulose) (HPC)
[10] = dose: 200.0 mg/kg/injection, schedule: Q01DX001 (ip), vehicle: Klucel (hydroxypropylcellulose) (HPC)
[11] = dose: 200.0 mg/kg/injection, schedule: Q01DX009 (ip), vehicle: Klucel (hydroxypropylcellulose) (HPC)
[12] = dose: 200.0 mg/kg/injection, schedule: Q04DX003 (ip), vehicle: Klucel (hydroxypropylcellulose) (HPC)
[13] = dose: 400.0 mg/kg/injection, schedule: Q04DX003 (ip), vehicle: Klucel (hydroxypropylcellulose) (HPC)
[14] = dose: 100.0 mg/kg/injection, schedule: Q01DX001 (ip), vehicle: saline

Measured: T/C

CC1(C#N)CC(C#N)Nc2ccccc2N1 (configuration not stated)
inactive: [1] 104 % of control | [2] 98 % of control

C[n+]1c(/C=C/c2ccc3c(c2)OCO3)ccc2ccccc21
inactive: dose: 25.0 mg/kg/injection, schedule: Q01DX009 (ip), vehicle: saline with Tween-80 108 % of control | [3] 106 % of control | dose: 33.0 mg/kg/injection, schedule: Q01DX009 (ip), vehicle: gum acacia 114 % of control | dose: 50.0 mg/kg/injection, schedule: Q01DX009 (ip), vehicle: gum acacia 98 % of control | [4] 101 % of control | [5] 95 % of control and 89 % of control

O=[N+]([O-])c1ccc(N=C=C(c2ccccc2)c2ccccc2)cc1
inactive: dose: 100.0 mg/kg/injection, schedule: Q04DX002 (ip), vehicle: DMSO 112 % of control | dose: 200.0 mg/kg/injection, schedule: Q04DX002 (ip), vehicle: DMSO 91 % of control | dose: 400.0 mg/kg/injection, schedule: Q04DX002 (ip), vehicle: DMSO 94 % of control

CC(=N\N=C(N)N)/C(=N/N=C(N)N)c1ccccc1
inactive: dose: 3.75 mg/kg/injection, schedule: Q01DX Z (ip), vehicle: saline 92 % of control | dose: 7.5 mg/kg/injection, schedule: Q01DX Z (ip), vehicle: saline 96 % of control | dose: 15.0 mg/kg/injection, schedule: Q01DX Z (ip), vehicle: saline 95 % of control and 102 % of control | dose: 30.0 mg/kg/injection, schedule: Q01DX Z (ip), vehicle: saline 92 % of control | dose: 240.0 mg/kg/injection, schedule: Q01DX009 (oral), vehicle: saline 88 % of control

COc1ccccc1OCCOCCNC1C(C)CCCC1(C)C (configuration not stated)
inactive: dose: 12.5 mg/kg/injection, schedule: Q04DX003 (ip), vehicle: Klucel (hydroxypropylcellulose) (HPC) 100 % of control | [3] 94 % of control | [4] 93 % of control | [5] 90 % of control

CC(=O)OC1C2CCC(C2)C1C (configuration not stated)
inactive: dose: 100.0 mg/kg/injection, schedule: Q01DX009 (ip), vehicle: saline with Tween-80 98 % of control | dose: 200.0 mg/kg/injection, schedule: Q01DX009 (ip), vehicle: saline with Tween-80 104 % of control | dose: 400.0 mg/kg/injection, schedule: Q01DX009 (ip), vehicle: saline with Tween-80 96 % of control

CC1CC[N-]CC1.CC1CC[N-]CC1.CC1CC[N-]CC1.[Cl][Cr]([Cl])[Cl]
inactive: dose: 100.0 mg/kg/injection, schedule: Q04DX003 (ip), vehicle: other 98 % of control | dose: 200.0 mg/kg/injection, schedule: Q04DX003 (ip), vehicle: other 95 % of control | dose: 400.0 mg/kg/injection, schedule: Q04DX003 (ip), vehicle: other 97 % of control

CC1C(C)(C)P(=O)(Oc2ccc3ccccc3c2)C1(C)C (configuration not stated)
inactive: [6] 100 % of control | [7] 97 % of control | dose: 400.0 mg/kg/injection, schedule: Q04DX003 (ip), vehicle: saline with Tween-80 92 % of control

CNC(=S)NN=C(c1ccccc1)c1ccccc1
inactive: [8] 95 % of control | [9] 91 % of control | [5] 93 % of control | [10] 90 % of control | [11] 89 % of control | [12] 87 % of control | dose: 400.0 mg/kg/injection, schedule: Q01DX001 (ip), vehicle: Klucel (hydroxypropylcellulose) (HPC) 87 % of control | dose: 400.0 mg/kg/injection, schedule: Q01DX009 (ip), vehicle: Klucel (hydroxypropylcellulose) (HPC) 93 % of control | [13] 96 % of control

Cc1c(O)ccc(O)c1C
inactive: [14] 100 % of control | dose: 200.0 mg/kg/injection, schedule: Q01DX001 (ip), vehicle: saline 95 % of control

COc1ccc(N2C(=O)C3C(C2=O)C2c4ccccc4C3C3CCCCN32)cc1 (configuration not stated)
inactive: dose: 75.0 mg/kg/injection, schedule: Q01DX001 (ip), vehicle: other 103 % of control

Cc1nnc(Cl)c2ccccc12
inactive: [14] 95 % of control

Cc1nc(-c2ccccc2)cc(=O)o1
inactive: [5] 102 % of control | [12] 102 % of control | [13] 98 % of control

OCCNCCc1ccccc1
inactive: dose: 75.0 mg/kg/injection, schedule: Q01DX009 (ip), vehicle: carboxymethylcellulose (CMC) 104 % of control | dose: 150.0 mg/kg/injection, schedule: Q01DX009 (ip), vehicle: carboxymethylcellulose (CMC) 107 % of control

Nc1ccn(Cc2ccccc2)c(=O)n1
inactive: dose: 75.0 mg/kg/injection, schedule: Q01DX001 (ip), vehicle: saline with Tween-80 95 % of control | dose: 150.0 mg/kg/injection, schedule: Q01DX001 (ip), vehicle: saline with Tween-80 94 % of control | dose: 300.0 mg/kg/injection, schedule: Q01DX001 (ip), vehicle: saline with Tween-80 95 % of control

CC(C)(C)C1=CC(=O)N2CC=CCC2(C#N)C1=O (configuration not stated)
inactive: dose: 50.0 mg/kg/injection, schedule: Q01DX001 (ip), vehicle: Klucel (hydroxypropylcellulose) (HPC) 99 % of control | [8] 99 % of control | [10] 99 % of control

CCN(CC)CCOC(=O)c1ccc(Cl)cc1
inactive: dose: 50.0 mg/kg/injection, schedule: Q01DX009 (ip), vehicle: saline 100 % of control | [1] 96 % of control | [2] 96 % of control

Cc1ccc([Si](C)(C)[Si](C)C)cc1
inactive: [5] 98 % of control | [12] 102 % of control | [13] 105 % of control

CC(=O)NCCN(C)C
inactive: [1] 97 % of control | dose: 100.0 mg/kg/injection, schedule: Q04DX003 (ip), vehicle: saline 103 % of control | [2] 96 % of control | dose: 200.0 mg/kg/injection, schedule: Q04DX003 (ip), vehicle: saline 101 % of control | dose: 400.0 mg/kg/injection, schedule: Q01DX009 (ip), vehicle: saline 97 % of control | dose: 400.0 mg/kg/injection, schedule: Q04DX003 (ip), vehicle: saline 97 % of control

O=c1ccccc(Br)c1O
inactive: dose: 100.0 mg/kg/injection, schedule: Q04DX003 (ip), vehicle: acetone 100 % of control | dose: 200.0 mg/kg/injection, schedule: Q04DX003 (ip), vehicle: acetone 98 % of control

CC(C)(C)C(=O)OCn1cnc2c(=N)n(O)cnc21
inactive: dose: 50.0 mg/kg/injection, schedule: Q01DX009 (ip), vehicle: Klucel (hydroxypropylcellulose) (HPC) 103 % of control | [9] 100 % of control | [5] 97 % of control | [11] 101 % of control | [12] 108 % of control

O=C1c2ccccc2C(=O)N1Cc1nc(=S)[nH][nH]1
inactive: dose: 100.0 mg/kg/injection, schedule: Q01DX001 (ip), vehicle: saline with Tween-80 100 % of control | dose: 200.0 mg/kg/injection, schedule: Q01DX001 (ip), vehicle: saline with Tween-80 97 % of control | dose: 400.0 mg/kg/injection, schedule: Q01DX001 (ip), vehicle: saline with Tween-80 97 % of control

CCCC/C(=N\NC(N)=S)c1ccc(F)cc1
inactive: dose: 8.0 mg/kg/injection, schedule: Q01DX Z (ip), vehicle: methylcellulose (MC) 95 % of control | dose: 15.0 mg/kg/injection, schedule: Q01DX Z (ip), vehicle: methylcellulose (MC) 89 % of control | dose: 30.0 mg/kg/injection, schedule: Q01DX Z (ip), vehicle: methylcellulose (MC) 98 % of control | dose: 30.0 mg/kg/injection, schedule: Q01DX Z (oral), vehicle: methylcellulose (MC) 86 % of control | dose: 60.0 mg/kg/injection, schedule: Q01DX Z (ip), vehicle: methylcellulose (MC) 87 % of control

O=C1NCC(Nc2ccc(Br)cc2)C(=O)N1 (configuration not stated)
inactive: dose: 100.0 mg/kg/injection, schedule: Q01DX Z (ip), vehicle: methylcellulose (MC) 96 % of control | dose: 200.0 mg/kg/injection, schedule: Q01DX Z (ip), vehicle: methylcellulose (MC) 94 % of control

COC(=O)C(CO)NC(=O)CNC(=O)OCc1ccccc1 (stereo not drawn) (Cbz-Gly-[ξS]-OMe)
inactive: dose: 100.0 mg/kg/injection, schedule: Q04DX003 (ip), vehicle: water 98 % of control | dose: 200.0 mg/kg/injection, schedule: Q04DX003 (ip), vehicle: water 94 % of control | dose: 400.0 mg/kg/injection, schedule: Q04DX003 (ip), vehicle: water 96 % of control

O=N[O-].O=N[O-].O=N[O-].O=N[O-].[Co+2].[NH2-].[NH2-]
inactive: [6] 115 % of control | [7] 118 % of control
